Our source for the melting point and inhibition in vivo values is patent US6653508B2, “3-amino-2-benzyl-1-phenylpropane derivatives” (Gruenenthal GmbH, priority 1999, dated 2003).

Structures are written as SMILES. Structures can show the parent of a compound that is named as a salt.

Test system in one data set: not given
Assay: not given
Conditions: not given
For `CN(C)CC(Cc1ccccc1)C(=O)c1cccc(Cl)c1Cl.Cl` (racemic), the melting point was 114 °C.

Compound `COc1ccc(C(=O)C(Cc2ccccc2)CN(C)C)c(OC)c1OC.Cl` (racemic) had a melting point of 141 °C.

As to `COc1cc(C(=O)C(Cc2ccccc2)CN(C)C)cc(OC)c1OC.Cl` (racemic), the melting point was 125 °C.

`CN(C)CC(Cc1ccccc1)C(=O)c1cc(O)ccc1O.Cl` (racemic): the melting point turned out to be 177 °C.

Take `COc1ccccc1C(=O)C(Cc1ccccc1)CN(C)C.Cl` (racemic): the melting point was determined as 159 °C.

In turn, `CN(C)CC(Cc1ccccc1)C(=O)c1ccc2ccccc2c1.Cl` (racemic) returned a melting point of 135.3 °C.

`CN(C)CC(Cc1ccccc1)C(=O)c1ccc2ccc3ccccc3c2c1.Cl` (racemic) had a melting point of 138.7 °C.

In turn, `CN(C)CC(Cc1ccccc1)C(=O)c1ccccc1O.Cl` (racemic) gave a melting point of 123 °C.

For `COc1ccc2cc(C(=O)C(Cc3ccccc3)CN(C)C)ccc2c1.Cl` (racemic), the melting point fell in the range of 88 to 95 °C.

As for `CN(C)CC(Cc1ccccc1)C(=O)c1ccccc1-c1ccccc1.Cl` (racemic), the melting point lay within 134 to 134.8 °C.

In the case of `CN(C)CC(Cc1ccccc1)C(=O)c1ccc(F)cc1Cl.Cl` (racemic), the melting point was 150.3 °C.

In turn, `COc1cccc(C(=O)C(Cc2ccccc2F)CN(C)C)c1.Cl` (racemic) came in with a melting point of 111 °C.

The compound `COc1cccc(C(=O)C(Cc2cccc(F)c2)CN(C)C)c1.Cl` (racemic) gave a melting point of 141 °C.

On to `COc1cccc(C(=O)C(Cc2ccc(F)cc2)CN(C)C)c1.Cl` (racemic), for which the melting point came to 138 °C.

As to `COc1ccc(CC(CN(C)C)C(=O)c2cccc(OC)c2)cc1.Cl` (racemic), the melting point came out at 134 °C.

In the case of `COc1cccc(C(=O)[C@@H](CN(C)C)[C@H](c2ccccc2)c2cccc(OC)c2)c1.Cl` (racemic), the melting point came to 139.1 °C.

As to `CC[C@@H](c1ccccc1)[C@H](CN(C)C)C(=O)c1cccc(OC)c1.Cl` (racemic), the melting point was found to be 89.5 °C.

Take `CN(C)CC(Cc1ccccc1)C(=O)c1cccc(C(F)(F)F)c1.Cl` (racemic): the melting point amounted to 104 °C.

`CNCC(Cc1cccc(C)c1)C(=O)c1cccc(OC)c1.Cl` (racemic) returned a melting point of 118 to 120 °C.

In turn, `COc1cccc(C(=O)C(Cc2ccc(F)c(F)c2)CN(C)C)c1.Cl` (racemic) came in with a melting point of 128 °C.

In turn, `CN(C)CC(Cc1ccccc1)C(=O)c1cccc(O)c1.Cl` (racemic) [Example 6, (2RS)-2-benzyl-3-dimethylamino-1-(3-hydroxyphenyl)-propan-1-one hydrochloride] yielded a melting point of 169 °C.

Take `COc1ccc(OC)c(C(=O)C(Cc2ccccc2)CN(C)C)c1.Cl` (racemic) [Example 8, (2RS)-2-benzyl-1-(2,5-dimethoxyphenyl)-3-dimethylaminopropan-1-one hydrochloride]: the melting point stood at 149 °C.

`CSc1cccc(C(=O)C(Cc2ccccc2)CN(C)C)c1.Cl` (racemic) [Example 22, (2RS)-2-benzyl-3-dimethylamino-1-(3-methylsulfanylphenyl)-propan-1-one hydrochloride] registered a melting point of 118 °C.

`CN(C)CC(Cc1ccccc1)C(=O)c1cccc(C#N)c1.Cl` (racemic) [Example 26, (2RS)-3-(2-benzyl-3-dimethylaminopropionyl)-benzonitrile hydrochloride] returned a melting point of 154 °C.

Regarding `CN(C)CC(Cc1ccccc1)C(=O)c1ccc2cc(O)ccc2c1.Cl` (racemic) [Example 29, (2RS)-2-benzyl-3-dimethylamino-1-(6-hydroxynaphthalen-2-yl)-propan-1-one hydrochloride], the melting point was in the range of 180 to 182 °C.

In another data set the test system is phenylquinone-induced writhing reactions in mice. The experiment in a line: Phenylquinone-induced writhing test in mice. The note with it: Mus musculus, iv; male mice, 10 mg/kg i.v.; phenylquinone i.p. 10 minutes after test substance; writhing counted 5-20 minutes after phenylquinone. The data set is classed as in vivo. The protocol:
The analgesic effectiveness of the compounds according to the invention is investigated in mice by the phenylquinone-induced writhing test as modified by I. C. Hendershot, J. Forsaith in J. Pharmacol. Exp. Ther. 125, 237-240 (1959). For this purpose male mice weighing 25-30 g are used. Groups in each case of 10 animals received per substance a dose, 10 minutes after intravenous administration of the test substances, 0.3 ml/mouse of a 0.02% aqueous solution of phenylquinone (phenylbenzoquinone, Sigma, Deisenhofen; solution prepared under the addition of 5% ethanol and storage in a water bath at 45° C.) applied intraperitoneally. The animals were then placed individually in observation cages. The number of pain-induced stretching movements (so-called writhing reactions=straightening of the body with stretching of the rear extremities) was counted with a push-button counter 5-20 minutes after administration of the phenyl quinone. Animals that had only received physiological saline solution with the phenylquinone served as controls.
All substances were tested in a standard dose of 10 mg/kg. The percentage inhibition (% inhibition) of the writhing reactions achieved by a substance was calculated according to the following formula: [formula]
Turning to `CN(C)CC(Cc1ccccc1)C(=O)c1cccc(OCc2ccccc2)c1` (racemic) [Example 2, (2RS)-1-(3-benzyloxyphenyl)-2-dimethylaminomethyl-3-phenylpropan-1-one hydrochloride], the inhibition in vivo at 10 mg/kg came out at 85%.

As to `CN(C)CC(Cc1ccccc1)C(=O)c1cccc(O)c1.Cl` (racemic) [Example 6, (2RS)-2-benzyl-3-dimethylamino-1-(3-hydroxyphenyl)-propan-1-one hydrochloride], 10 mg/kg produced 84% inhibition in vivo.

Compound `COc1cc(OC)cc(C(=O)C(Cc2ccccc2)CN(C)C)c1` (racemic) [Example 7, (2RS)-2-benzyl-1-(3,5-dimethoxyphenyl)-3-dimethylamino-propan-1-one hydrochloride] had an inhibition in vivo at 10 mg/kg of 75%.

Turning to `COc1ccc(OC)c(C(=O)C(Cc2ccccc2)CN(C)C)c1.Cl` (racemic) [Example 8, (2RS)-2-benzyl-1-(2,5-dimethoxyphenyl)-3-dimethylaminopropan-1-one hydrochloride], the inhibition in vivo at 10 mg/kg is 92%.

`CN(C)CC(Cc1ccccc1)C(=O)c1cc(Cl)ccc1Cl` (racemic) [Example 13, (2RS)-2-benzyl-1-(2,5-dichlorophenyl)-3-dimethylaminopropan-1-one hydrochloride] returned an inhibition in vivo at 10 mg/kg of 70%.

In the case of `CSc1cccc(C(=O)C(Cc2ccccc2)CN(C)C)c1.Cl` (racemic) [Example 22, (2RS)-2-benzyl-3-dimethylamino-1-(3-methylsulfanylphenyl)-propan-1-one hydrochloride], testing at 10 mg/kg gave an inhibition in vivo of 62%.

As to `CN(C)CC(Cc1ccccc1)C(=O)c1cccc(C#N)c1.Cl` (racemic) [Example 26, (2RS)-3-(2-benzyl-3-dimethylaminopropionyl)-benzonitrile hydrochloride], the inhibition in vivo at 10 mg/kg was found to be 79%.

`CN(C)CC(Cc1ccccc1)C(=O)c1ccc2cc(O)ccc2c1.Cl` (racemic) [Example 29, (2RS)-2-benzyl-3-dimethylamino-1-(6-hydroxynaphthalen-2-yl)-propan-1-one hydrochloride] showed an inhibition in vivo at 10 mg/kg of 82%.

The compound `C/C=C(\c1cccc(OC)c1)C(Cc1ccccc1)CN(C)C` (racemic) [Example 65, Z-(2RS)-[2-benzyl-3-(3-methoxyphenyl)-pent-3-enyl]-dimethyl-amine hydrochloride] showed an inhibition in vivo at 10 mg/kg of 100%.

In turn, `COc1ccc(C(=O)C(Cc2ccccc2)CN(C)C)c(C)c1C` (racemic) [Example 71, (2RS)-2-benzyl-3-dimethylamino-1-(4-methoxy-2,3-dimethylphenyl)-propan-1-one hydrochloride] returned an inhibition in vivo at 10 mg/kg of 94%.

Compound `COc1cccc(C(=O)C(Cc2cccc(Cl)c2)CN(C)C)c1` (racemic) [Example 72, (2RS)-2-(3-chlorobenzyl)-3-dimethylamino-1-(3-methoxyphenyl)-propan-1-one hydrochloride] gave an inhibition in vivo at 10 mg/kg of 85%.

`COc1cccc(C(=O)[C@@H](Cc2ccccc2)CN(C)C)c1` [Example 11, (−)-(S)-2-benzyl-3-dimethylamino-1-(3-methoxyphenyl)-propan-1-one hydrochloride]: at 10 mg/kg the inhibition in vivo was 90%.
